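48-hour exposure; five concentrations; linearly interpolated endpoints. GI50 is the concentration that inhibits growth by half. Definition used: TGI = concentration required for complete inhibition of growth.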
Tests used:
Test in all cases: inhibition of tumour cell growth, NCI panel, 48 h
[1] = test system: 786-0 renal
[2] = test system: A498 renal
[3] = test system: A549 NSCLC
[4] = test system: ACHN renal
[5] = test system: BT-549 breast
[6] = test system: CAKI-1 renal
[7] = test system: CCRF-CEM leukemia
[8] = test system: COLO 205 colon
[9] = test system: DU-145 prostate
[10] = test system: EKVX NSCLC
[11] = test system: HCC-2998 colon
[12] = test system: HCT-116 colon
[13] = test system: HCT-15 colon
[14] = test system: HL-60(TB) leukemia
[15] = test system: HOP-62 NSCLC
[16] = test system: HOP-92 NSCLC
[17] = test system: HS 578T breast
[18] = test system: HT29 colon
[19] = test system: IGROV1 ovarian
[20] = test system: K-562 leukemia
[21] = test system: KM12 colon
[22] = test system: LOX IMVI melanoma
[23] = test system: M14 melanoma
[24] = test system: MALME-3M melanoma
[25] = test system: MCF7 breast
[26] = test system: MDA-MB-231 breast
[27] = test system: MDA-MB-435
[28] = test system: MDA-N
[29] = test system: MOLT-4 leukemia
[30] = test system: NCI-H226 lung
[31] = test system: NCI-H23 lung
[32] = test system: NCI-H460 lung
[33] = test system: NCI-H522 lung
[34] = test system: NCI/ADR-RES ovarian
[35] = test system: OVCAR-3 ovarian
[36] = test system: OVCAR-4 ovarian
[37] = test system: OVCAR-5 ovarian
[38] = test system: OVCAR-8 ovarian
[39] = test system: PC-3 prostate
[40] = test system: RPMI-8226 leukemia
[41] = test system: RXF 393 renal
[42] = test system: SF-268 CNS
[43] = test system: SF-295 CNS
[44] = test system: SF-539 CNS
[45] = test system: SK-MEL-2 melanoma
[46] = test system: SK-MEL-28 melanoma
[47] = test system: SK-OV-3 ovarian
[48] = test system: SN12C renal
[49] = test system: SNB-19 CNS
[50] = test system: SNB-75 CNS
[51] = test system: T-47D breast
[52] = test system: TK-10 renal
[53] = test system: U251 CNS
[54] = test system: UACC-257 melanoma
[55] = test system: UACC-62 melanoma
[56] = test system: UO-31 renal

O=C1c2cccnc2-c2nc(/C=C/c3ccccc3)cc3c2c1nc1ccccc13
GI50 [1]: 2.26 µM | TGI [1]: 6.48 µM | GI50 [2]: 3.88 µM | TGI [2]: 10.5 µM | GI50 [3]: 2.2 µM | TGI [3]: 4.34 µM | GI50 [4]: 1.94 µM | TGI [4]: 5.54 µM | GI50 [5]: 6.38 µM | TGI [5]: 17.3 µM | GI50 [6]: 3.05 µM | TGI [6]: 10.3 µM | GI50 [7]: 3.06 µM | TGI [7]: > 100 µM | GI50 [8]: 3.74 µM | TGI [8]: 16.7 µM | GI50 [9]: 1.76 µM | TGI [9]: 3.58 µM | GI50 [10]: 2.82 µM | TGI [10]: 14 µM | GI50 [11]: 1.81 µM | TGI [11]: 3.2 µM | GI50 [12]: 1.95 µM | TGI [12]: 6.14 µM | GI50 [13]: 0.844 µM | TGI [13]: 2.1 µM | GI50 [14]: 1.79 µM | TGI [14]: 7.97 µM | GI50 [15]: 2.78 µM | TGI [15]: 11.8 µM | GI50 [16]: 17.4 µM | TGI [16]: > 100 µM | GI50 [17]: 3.74 µM | TGI [17]: 18 µM | GI50 [18]: 1.87 µM | TGI [18]: 3.97 µM | GI50 [19]: 1.59 µM | TGI [19]: 4.44 µM | GI50 [20]: 1.43 µM | TGI [20]: 9.1 µM | GI50 [21]: 1.78 µM | TGI [21]: 5.04 µM | GI50 [22]: 2.76 µM | TGI [22]: 6.92 µM | GI50 [23]: 1.73 µM | TGI [23]: 3.58 µM | GI50 [24]: 5.01 µM | TGI [24]: 20.5 µM | GI50 [25]: 0.899 µM | TGI [25]: 5.01 µM | GI50 [26]: 6.95 µM | TGI [26]: > 80.8 µM | GI50 [27]: 1.86 µM | TGI [27]: 3.37 µM | GI50 [28]: 2.04 µM | TGI [28]: 4.15 µM | GI50 [29]: 1.57 µM | TGI [29]: 10.8 µM | GI50 [30]: 10.1 µM | TGI [30]: 28 µM | GI50 [31]: 1.6 µM | TGI [31]: 3.58 µM | GI50 [32]: 0.354 µM | TGI [32]: 1.27 µM | GI50 [33]: 1.76 µM | TGI [33]: 3.47 µM | GI50 [34]: 6.35 µM | TGI [34]: 42.1 µM | GI50 [35]: 1.9 µM | TGI [35]: 4.69 µM | GI50 [36]: 3.77 µM | TGI [36]: 10.5 µM | GI50 [37]: 11.8 µM | TGI [37]: 25.4 µM | GI50 [38]: 3.8 µM | TGI [38]: > 30 µM | GI50 [39]: 1.97 µM | TGI [39]: 13.6 µM | GI50 [40]: 1.2 µM | TGI [40]: 5.12 µM | GI50 [41]: 14.8 µM | TGI [41]: 37.1 µM | GI50 [42]: 2.24 µM | TGI [42]: > 21.2 µM | GI50 [43]: 2.31 µM | TGI [43]: 5.27 µM | GI50 [44]: 3.02 µM | TGI [44]: 7.77 µM | GI50 [45]: 2.14 µM | TGI [45]: 4.99 µM | GI50 [46]: 2.3 µM | TGI [46]: 4.18 µM | GI50 [47]: 7.1 µM | TGI [47]: 17 µM | GI50 [48]: 2.77 µM | TGI [48]: 9.01 µM | GI50 [49]: 2.51 µM | TGI [49]: 6.13 µM | GI50 [50]: 2 µM | TGI [50]: 8.06 µM | GI50 [51]: 6.16 µM | TGI [51]: > 78.7 µM | GI50 [52]: 19.1 µM | TGI [52]: 43.2 µM | GI50 [53]: 2.9 µM | TGI [53]: 11.1 µM | GI50 [54]: 2.35 µM | TGI [54]: 6.3 µM | GI50 [55]: 1.72 µM | TGI [55]: 3.28 µM | GI50 [56]: 2.01 µM | TGI [56]: 6.5 µM
